Patent publication US9624215B2, “Amine derivative or salt thereof” (TOYAMA CHEMICAL CO., LTD., priority 2012, dated 2017)

Columns and labels:
[1] = system: normal human neonatal foreskin epidermal keratinocytes (NHEK-F); assay: Cell proliferation inhibition test; assay type: cell-based; conditions: Keratinocyte, 72 h, NHEK-F cells, three days incubation, ATPlite or CellTiterGlo, read-out: IC50 (concentration of the compound at which the cell count is reduced by 50%)
Outline: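 IC50 is the compound level halving cell count relative to untreated wells, with counts from ATP-based luminescence (ATPlite or CellTiterGlo). Readout followed 3 days of compound exposure of overnight-attached neonatal foreskin keratinocytes (2×10^3/well, Humedia-EG2 medium).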

[2] = system: TPA-induced ear edema and acanthosis in Balb/c mice; assay: Mouse TPA-induced ear-swelling model; assay type: in vivo; conditions: topical, 240 h, 1% w/v solution, 20 μL applied to ear once a day from day 0 to day 9, female Balb/c mice, read-out: Inhibition rate of change in ear thickness on day 10
Procedure: Seven-week-old female Balb/c mice (Charles River Laboratories Japan) were used. 20 μL of a 20 ng/mL solution of TPA (Wako Pure Chemical Industries, 162-23591) dissolved in 5% DMSO/acetone was applied to the outer side of the mouse ear on day 0, day 2, day 4, day 7 and day 9 to induce ear edema and acanthosis. The test compound was dissolved in a 5% DMSO/acetone solution (concentration: 1% w/v) and 20 μL of the resulting solution was applied to the outer side of the ear once a day from day 0 to day 9. For the control group, a 5% DMSO/acetone solution was similarly applied. The TPA solution and the test compound solution were mixed and applied on the days for TPA application (day 0, day 2, day 4, day 7 and day 9). The ear thickness was chronologically measured on days 0-4 and days 7-10 using a micrometer (Mitutoyo, MDC-25MJT). The change in ear thickness and the inhibition rate were determined by the following formulas. Change in ear thickness=(ear thickness measured on day 10)−(ear thickness measured on day 0 before TPA application) Inhibition rate (%)=100−(change in ear thickness for test compound group/change in ear thickness for control group)×100

| Compound | IC50 [1] [nM] | inhibition in vivo at 1 % strength [2] [%] |
| --- | --- | --- |
| CC(C)Cn1ccc2cc(Nc3ncc(C4CC4)cc3C(=O)O)ccc21 [Example 126, 2-((1-isobutyl-1H-indol-5-yl)amino)-5-cyclopropylnicotinic acid] | ≤ 10 | ≥ 20 |
| O=C(O)c1cc(C2CC2)cnc1Nc1ccc2ccn(CC3CCCCC3)c2c1 [Example 523, 2-((1-(cyclohexylmethyl)-1H-indol-6-yl)amino)-5-cyclopropylnicotinic acid] | ≤ 10 | ≥ 20 |
| O=C(O)c1cc(C2CC2)cnc1Nc1ccc2c(c1)sc(=O)n2CC1CCCCC1 [Example 565, 2-((3-(cyclohexylmethyl)-2-oxo-2,3-dihydro-1,3-benzothiazol-6-yl)amino)-5-cyclopropylnicotinic acid] | ≤ 10 | ≥ 20 |
| O=C(O)c1cc(C2CC2)cnc1Nc1ccc2c(ccn2Cc2cccc(C(F)(F)F)c2)c1 [Example 450, 5-cyclopropyl-2-((1-(3-(trifluoromethyl)benzyl)-1H-indol-5-yl)amino)nicotinic acid] | ≤ 10 | ≥ 20 |
| O=C(O)c1cc(C2CC2)cnc1Nc1ccc2c(ccn2Cc2cccc(F)c2F)c1 [Example 642, 5-cyclopropyl-2-((1-(2,3-difluorobenzyl)-1H-indol-5-yl)amino)nicotinic acid] | ≤ 10 | ≥ 20 |
| Cn1ccc2cc(Nc3ncc(C4CC4)cc3C(=O)O)cc(-c3ccccc3F)c21 [Example 464, 5-cyclopropyl-2-((7-(2-fluorophenyl)-1-methyl-1H-indol-5-yl)amino)nicotinic acid] | ≤ 10 | ≥ 20 |
| Cn1cc(-c2ccccc2F)c2cc(Nc3ncc(C4CC4)cc3C(=O)O)ccc21 [Example 557, 5-cyclopropyl-2-((3-(2-fluorophenyl)-1-methyl-1H-indol-5-yl)amino)nicotinic acid] | 10 to 100 | ≥ 20 |
| Cn1ccc2cc(Nc3ncc(C4CC4)cc3C(=O)O)cc(-c3ccc(C#N)cc3)c21 [Example 484, 2-((7-(4-cyanophenyl)-1-methyl-1H-indol-5-yl)amino)-5-cyclopropylnicotinic acid] | ≤ 10 | ≥ 20 |
| CCCCCn1ccc2cc(Nc3ncc(C4CC4)cc3C(=O)O)ccc21 [Example 638, 5-cyclopropyl-2-((1-pentyl-1H-indol-5-yl)amino)nicotinic acid] | 10 to 100 | ≥ 20 |
| CCCCn1ccc2cc(Nc3ncc(C4CC4)cc3C(=O)O)ccc21 [Example 637, 2-((1-butyl-1H-indol-5-yl)amino)-5-cyclopropylnicotinic acid] | 10 to 100 | ≥ 20 |
| COCCCc1cc(Nc2ncc(C3CC3)cc2C(=O)O)cc2ccn(C)c12 [Example 468, 5-cyclopropyl-2-((7-(3-methoxypropyl)-1-methyl-1H-indol-5-yl)amino)nicotinic acid] | 10 to 100 | ≥ 20 |
| Cn1ccc2cc(Nc3ncc(C4CC4)cc3C(=O)O)cc(CCC3CC3)c21 [Example 470, 5-cyclopropyl-2-((7-(2-cyclopropylethyl)-1-methyl-1H-indol-5-yl)amino)nicotinic acid] | ≤ 10 | ≥ 20 |
| Cc1cccc(Cn2ccc3cc(Nc4ncc(C5CC5)cc4C(=O)O)ccc32)c1 [Example 456, 5-cyclopropyl-2-((1-(3-methylbenzyl)-1H-indol-5-yl)amino)nicotinic acid] | ≤ 10 | ≥ 20 |
| O=C(O)c1cc(C2CC2)cnc1Nc1cccc2c1ccn2Cc1ccccc1 [Example 208, 2-((1-benzyl-1H-indol-4-yl)amino)-5-cyclopropylnicotinic acid] | 10 to 100 | ≥ 20 |
| O=C(O)c1cc(C2CC2)cnc1Nc1ccc2c(ccn2Cc2cc(F)cc(F)c2)c1 [Example 497, 5-cyclopropyl-2-((1-(3,5-difluorobenzyl)-1H-indol-5-yl)amino)nicotinic acid] | ≤ 10 | ≥ 20 |
| COc1ccccc1-c1cc(Nc2ncc(C3CC3)cc2C(=O)O)cc2ccn(C)c12 [Example 485, 5-cyclopropyl-2-((7-(2-methoxyphenyl)-1-methyl-1H-indol-5-yl)amino)nicotinic acid] | ≤ 10 | ≥ 20 |

| Compound | IC50 [1] [nM] | inhibition in vivo at 1 % strength [2] [%] |
| --- | --- | --- |
| Cn1ccc2cc(Nc3ncc(C4CC4)cc3C(=O)O)cc(-c3cccc(-c4ccccc4)c3)c21 [Example 189, 2-((7-([1,1′-biphenyl]-3-yl)-1-methyl-1H-indol-5-yl)amino)-5-cyclopropylnicotinic acid] | ≤ 10 | ≥ 20 |
| O=C(O)c1cc(C2CC2)cnc1Nc1ccc2c(ccn2Cc2cccc(F)c2)c1 [Example 239, 5-cyclopropyl-2-((1-(3-fluorobenzyl)-1H-indol-5-yl)amino)nicotinic acid] | ≤ 10 | ≥ 20 |
| O=C(O)c1cc(C2CC2)cnc1Nc1ccc2c(ccn2Cc2cccc(Cl)c2)c1 [Example 460, 2-((1-(3-chlorobenzyl)-1H-indol-5-yl)amino)-5-cyclopropylnicotinic acid] | ≤ 10 | ≥ 20 |
| O=C(O)c1cc(C2CC2)cnc1Nc1ccc2c(ccn2Cc2ccc(F)cc2)c1 [Example 241, 5-cyclopropyl-2-((1-(4-fluorobenzyl)-1H-indol-5-yl)amino)nicotinic acid] | ≤ 10 | ≥ 20 |
| CCn1c(-c2ccccc2)cc2cc(Nc3ncc(C4CC4)cc3C(=O)O)ccc21 [Example 142, 5-cyclopropyl-2-((1-ethyl-2-phenyl-1H-indol-5-yl)amino)nicotinic acid] | 10 to 100 | ≥ 20 |
| Cn1ccc2cc(Nc3ncc(C4CC4)cc3C(=O)O)cc(-c3ccccc3C#N)c21 [Example 482, 2-((7-(2-cyanophenyl)-1-methyl-1H-indol-5-yl)amino)-5-cyclopropylnicotinic acid] | ≤ 10 | ≥ 20 |
| O=C(O)c1cc(C2CC2)cnc1Nc1ccc2c(ccn2Cc2ccc(F)c(F)c2)c1 [Example 635, 5-cyclopropyl-2-((1-(3,4-difluorobenzyl)-1H-indol-5-yl)amino)nicotinic acid] | ≤ 10 | ≥ 20 |
| O=C(O)c1cc(C2CC2)cnc1Nc1ccc2c(ccn2CC2CCC2)c1 [Example 133, 2-((1-(cyclobutylmethyl)-1H-indol-5-yl)amino)-5-cyclopropylnicotinic acid] | ≤ 10 | ≥ 20 |
| CCn1ccc2cc(Nc3ncc(C4CC4)cc3C(=O)O)cc(CCCOC)c21 [Example 598, 5-cyclopropyl-2-((1-ethyl-7-(3-methoxypropyl)-1H-indol-5-yl)amino)nicotinic acid] | 10 to 100 | ≥ 20 |
| CC(C)Cn1ccc2cc(Nc3ncc(C4CC4)cc3C(=O)O)cc(-c3ccccc3)c21 [Example 224, 5-cyclopropyl-2-((1-isobutyl-7-phenyl-1H-indol-5-0)amino)nicotinic acid] | ≤ 10 | ≥ 20 |
| CCn1ccc2cc(Nc3ncc(C4CC4)cc3C(=O)O)cc(-c3ccccc3)c21 [Example 597, 5-cyclopropyl-2-((1-ethyl-7-phenyl-1H-indol-5-yl)amino)nicotinic acid] | ≤ 10 | ≥ 20 |
| O=C(O)c1cc(C2CC2)cnc1Nc1ccc2c(ccn2CC2CCCC2)c1 [Example 138, 2-((1-(cyclopentylmethyl)-1H-indol-5-yl)amino)-5-cyclopropylnicotinic acid] | ≤ 10 | ≥ 20 |
| O=C(O)c1cc(C2CC2)cnc1Nc1ccc2c(ccn2CCc2ccccc2)c1 [Example 619, 5-cyclopropyl-2-((1-(2-phenylethyl)-1H-indol-5-yl)amino)nicotinic acid] | ≤ 10 | ≥ 20 |
| Cn1ccc2cc(Nc3ncc(C4CC4)cc3C(=O)O)cc(-c3ccc(F)cc3F)c21 [Example 588, 5-cyclopropyl-2-((7-(2,4-difluorophenyl)-1-methyl-1H-indol-5-yl)amino)nicotinic acid] | ≤ 10 | ≥ 20 |
| Cc1ccc(Cn2ccc3cc(Nc4ncc(C5CC5)cc4C(=O)O)ccc32)cc1 [Example 457, 5-cyclopropyl-2-((1-(4-methylbenzyl)-1H-indol-5-yl)amino)nicotinic acid] | ≤ 10 | ≥ 20 |
| CCCCCCn1ccc2cc(Nc3ncc(C4CC4)cc3C(=O)O)ccc21 [Example 639, 5-cyclopropyl-2-((1-hexyl-1H-indol-5-yl)amino)nicotinic acid] | ≤ 10 | ≥ 20 |
